A word on the IC50: it is the concentration needed to halve the response being measured.

Numbered stars: 1 amine (or outer) side, 2 acyl side, 3 side chain; on linkers, the order of the positions; unused ones are H or OH. Bridge positions count the residues as written; N and C are the ends. Square brackets hold non-standard residues; d marks the D form. Peptide text beside a SMILES is read from it. I, II: the chains in the order shown. Phe(3,4-Cl2) = N[C@@H](Cc1ccc(Cl)c(Cl)c1)C(=O)O; Phe(2,4-Cl2) = N[C@@H](Cc1ccc(Cl)cc1Cl)C(=O)O; 1Nal = N[C@@H](Cc1cccc2ccccc12)C(=O)O; 2Nal = N[C@@H](Cc1ccc2ccccc2c1)C(=O)O; Diglycolyl = O=C(COCC(=O)[*:2])[*:1]; NMeR = CN[C@@H](CCCNC(=N)N)C(=O)O; Pen = CC(C)(S)[C@H](N)C(=O)O; dNMeK = CN[C@H](CCCCN)C(=O)O

Consider five compounds from patent US9809623B2, “α4β7 peptide monomer and dimer antagonists” (Protagonist Therapeutics, Inc., priority 2014, dated 2017).

In data set [1] the target is α4β7 (Homo sapiens, UniProt P13612+P26010). The data set is described as follows: α4β7-MAdCAM Cell Adhesion Assay (RPMI 8866 human cells). It is filed as cell-based. Details: host or cells: RPMI 8866 human B lymphoblastoid cells. As to conditions: Table 3-B, Potency (α4β7); range classes; read-out: α4β7 cell (Hu) IC50. In outline:
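Adhesion read-out: MTT absorbance at 570 nm minus no-cell wells, after three washes. Plates coated with rh MAdCAM-1/Fc received peptide dilutions plus 200,000 RPMI 8866 cells in Mn2+ (1 mM)-supplemented DMEM, 0.1% BSA, HEPES pH 7, incubated 30-45 min, 37 °C.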

Data set [2] can be described thus: Simulated Intestinal Fluid (SIF) Stability Assay. As to conditions: > means experiment was stopped at that time and half life was not reached; for half-life at 22 μM: pig, simulated intestinal fluid (SIF) with 1% porcine pancreatin, pH 6.5, Table 3-B, read-out: Stabilty SIF t1/2. Format: in vitro ADME, porcine. In outline:
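Intestinal stability: percent peptide remaining over time, by LC-MS/MS peak-area ratio to internal standard, fitted to first-order decay for half-life. Conditions: 22 μM peptide, 1% pancreatin in pH 6.5 blank FASSIF, 37 °C.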

For data set [3], the target named is T1, α4β1 (Homo sapiens, UniProt P05556+P13612, DEL729-798).
T1 construct: purchased R&D Systems 5668-A4
The data set can be described thus: α4β1-VCAM Competition ELISA. Format: binding. As to conditions: Table 3-B, Selectivity (α4β1); range classes; read-out: α4β1 ELISA IC50. The method, then:
A Nunc MaxiSorp plate was coated with rh VCAM-1/CD106 Fc chimera (R&D #862-VC) at 400 ng/well in 50 ul per well in 1×PBS and incubated overnight at 4° C. The solution was removed by shaking and then blocked with 250 ul of 1% BSA in 1×PBS per well. The wells were then incubated at room temperature for 1 hr with shaking. Each well was then washed once with wash buffer (50 mM Tris-HCl pH7.6, 100 mM NaCL, 1 mM MnCl2 or MgCl2, 0.05% Tween-20). 25 ul of serial dilutions of peptides starting at 200 μM in assay buffer (Assay buffer: 50 mM Tris-HCl pH7.6, 100 mM NaCl, 1 mM MnCl2 or MgCl2, 0.05% Tween-20) was added to each well. Additionally, 25 ul of α4β1 (R&D Systems #5668-A4) was added to each well at a fixed concentration of 120 nM. The final peptide and α4β1 concentrations were 100 μM and 60 nM, respectively. The plates were then incubated at 37° C. for 2 hr. The solution was then removed by shaking, and each well was washed three times with wash buffer. 50 ul of 9F10 antibody at 4 ug/ml (purified mouse anti-human CD49d, BD Bioscience Cat#555502) was then added to each well, and the plate was incubated at room temperature for 1 hr with shaking. The solution was again removed by shaking, and each well was washed three times with wash buffer. 50 ul of peroxidase-conjugated AffiniPure Goat anti-mouse IgG (Jackson immune research cat #115-035-003) diluted in 1:5000 in assay buffer was added to each well. The plate was incubated at room temperature for 30 min with shaking. Each well was then washed 3 times with wash buffer. 100 ul of TMB was then added to each well and closely observe during developing time. The reaction was stepped with 2N H2SO4 and absorbance was read at 450 nm.
In general terms: In an ELISA, binding on a coated surface is turned into a signal by an enzyme label.

Data set [4] has as its target T2, rh integrin α4β7 (Homo sapiens, UniProt P13612+P26010).
T2 construct: purchased R&D Systems 5397-A30
The data set is described as follows: α4β7-MAdCAM Competition ELISA. Format: binding. The note with it: Table 3-B, Potency (α4β7); range classes; read-out: α4β7 ELISA IC50. In outline: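 Competition read-out was A450 after anti-human IgG1-HRP and TMB detection of bound recombinant human MAdCAM-1 (10 nM final). Peptides were serially diluted 3-fold from a final 10 μM and equilibrated 1 h at room temperature on nickel-captured α4β7 (800 ng/well). The buffer was Tris pH 7.6 with 1 mM Mn2+ or Mg2+.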

The target in data set [5] is T3, α4β7 (Mus musculus, UniProt P26011+Q00651).
T3 construct: host or cells: TK1 mouse T cells
The data set can be described thus: α4β7 Cell Adhesion Assay (Mouse), TK1 cells. It is filed as cell-based. The note with it: Table 3-B, Potency (α4β7); range classes; read-out: α4β7 cell(MU) IC50. The method, then:
TK1 cells (ATCC # ATCC-CRL-2396) were cultured in RPMI 1640 with 2 mM L-glutamine adjusted to contain 1.5 g/L sodium bicarbonate, 4.5 g/L glucose, 10 mM HEPES, and 1.0 mM sodium pyruvate (ATCC#30-2001) and supplemented with 0.1 mM non-essential amino acids, (ATCC #30-2116) 0.05 mM 2-mercaptoethanol (Invitrogen #21985) and 10% serum (Fetal Bovine Serum, Invitrogen #16140-071), and Penicillin-Streptomycin (Invitrogen #15140-122) at 100 units of penicillin and 100 μg of streptomycin per ml. The cells were washed two times in DMEM medium (ATCC #30-2002) supplemented with 0.1% BSA, 10 mM HEPES pH 7 and 1 mM MnCl2. The cells were re-suspended in supplemented DMEM medium at a density of 4×10^6 cells/ml.
A Nunc MaxiSorp plate was coated with Recombinant human MAdCAM-1 Fc Chimera (R&D #6065-MC) at 200 ng per well in 100 μl per well in 1×PBS and incubated at 4° C. overnight. The solution was then removed by shaking, blocked with 250 ul per well PBS containing 1% BSA, and incubated at 37° C. for 1 hr. The solution was removed by shaking. DATK 32 (anti-mouse α4β7) and peptides were diluted by serial dilution in a final volume of 50 ul per well (2× concentration). To each well, 50 ul of cells (200,000 cells) are added and the plate is incubated at 37° C., 5% CO2 for 30-45 min to allow cell adhesion. The plate was manually washed three times with supplemented DMEM, 100 ul per wash. After the final wash, 100 ul/well of supplemented DMEM and […] of MTT reagent (ATTC cat#30-1010K) was added to each well. Wells were incubated at 37° C. with 5% CO2 for 2-3 hrs until purple precipitate was visible. 100 μl of Detergent Reagent (ATTC cat#30-1010K) was added to each well. The plate was then wrapped with Para film to prevent evaporation, and left overnight at room temperature in the dark. The plate was shaken for 5 min and the absorbance at 570 nm was measured. To calculate the dose response, the absorbance value of control wells not containing cells was subtracted from each test well.

T1 sequence (P13612 34-977 limits assumed, stated change not applied): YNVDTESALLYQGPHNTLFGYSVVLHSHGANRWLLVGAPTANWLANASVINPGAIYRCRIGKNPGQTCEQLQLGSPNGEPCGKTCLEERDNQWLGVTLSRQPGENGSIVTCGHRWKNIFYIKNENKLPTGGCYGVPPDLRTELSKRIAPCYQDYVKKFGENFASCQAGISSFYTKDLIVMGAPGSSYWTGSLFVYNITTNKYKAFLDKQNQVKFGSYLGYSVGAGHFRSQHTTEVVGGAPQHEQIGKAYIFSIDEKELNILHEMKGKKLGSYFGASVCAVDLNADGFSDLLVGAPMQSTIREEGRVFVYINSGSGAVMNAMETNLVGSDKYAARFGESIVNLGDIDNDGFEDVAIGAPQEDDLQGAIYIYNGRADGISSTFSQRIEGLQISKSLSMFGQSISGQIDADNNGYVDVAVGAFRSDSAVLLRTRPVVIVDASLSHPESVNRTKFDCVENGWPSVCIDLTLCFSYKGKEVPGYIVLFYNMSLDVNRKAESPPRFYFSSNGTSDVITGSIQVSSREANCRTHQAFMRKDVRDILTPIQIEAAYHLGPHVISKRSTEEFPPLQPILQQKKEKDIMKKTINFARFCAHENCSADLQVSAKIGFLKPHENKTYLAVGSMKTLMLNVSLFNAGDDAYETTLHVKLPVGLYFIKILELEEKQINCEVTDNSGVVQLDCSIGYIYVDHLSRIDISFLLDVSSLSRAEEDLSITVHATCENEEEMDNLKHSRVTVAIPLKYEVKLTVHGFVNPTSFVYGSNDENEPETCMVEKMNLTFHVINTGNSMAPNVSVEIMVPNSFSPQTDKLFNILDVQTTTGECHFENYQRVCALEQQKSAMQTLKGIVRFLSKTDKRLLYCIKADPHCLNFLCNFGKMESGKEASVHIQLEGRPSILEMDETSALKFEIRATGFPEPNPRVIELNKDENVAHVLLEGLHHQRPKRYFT
T1 sequence (P05556 21-728 limits assumed, stated change not applied): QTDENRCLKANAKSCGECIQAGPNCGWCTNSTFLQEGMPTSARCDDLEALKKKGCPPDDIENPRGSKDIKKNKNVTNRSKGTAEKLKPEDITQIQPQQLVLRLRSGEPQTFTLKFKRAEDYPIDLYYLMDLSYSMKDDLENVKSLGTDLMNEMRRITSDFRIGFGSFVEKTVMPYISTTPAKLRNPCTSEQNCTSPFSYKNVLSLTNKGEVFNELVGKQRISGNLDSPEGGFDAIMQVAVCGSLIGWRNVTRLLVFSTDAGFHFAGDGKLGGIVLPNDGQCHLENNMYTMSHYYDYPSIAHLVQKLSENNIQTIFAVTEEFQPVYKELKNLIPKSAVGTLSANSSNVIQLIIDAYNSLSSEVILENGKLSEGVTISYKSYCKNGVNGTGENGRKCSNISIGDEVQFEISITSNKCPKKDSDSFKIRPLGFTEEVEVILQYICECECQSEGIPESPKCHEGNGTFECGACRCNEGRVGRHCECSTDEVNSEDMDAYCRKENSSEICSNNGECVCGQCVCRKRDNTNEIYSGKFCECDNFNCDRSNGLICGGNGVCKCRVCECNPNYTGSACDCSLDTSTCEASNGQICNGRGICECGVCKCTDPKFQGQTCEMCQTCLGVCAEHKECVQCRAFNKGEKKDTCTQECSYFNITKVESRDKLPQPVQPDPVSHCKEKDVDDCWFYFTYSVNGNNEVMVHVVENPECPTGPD
T2 sequence (P13612 34-977 limits assumed): as the sequence (P13612 34-977 limits assumed, stated change not applied) above
T2 sequence (P26010 20-723 limits assumed): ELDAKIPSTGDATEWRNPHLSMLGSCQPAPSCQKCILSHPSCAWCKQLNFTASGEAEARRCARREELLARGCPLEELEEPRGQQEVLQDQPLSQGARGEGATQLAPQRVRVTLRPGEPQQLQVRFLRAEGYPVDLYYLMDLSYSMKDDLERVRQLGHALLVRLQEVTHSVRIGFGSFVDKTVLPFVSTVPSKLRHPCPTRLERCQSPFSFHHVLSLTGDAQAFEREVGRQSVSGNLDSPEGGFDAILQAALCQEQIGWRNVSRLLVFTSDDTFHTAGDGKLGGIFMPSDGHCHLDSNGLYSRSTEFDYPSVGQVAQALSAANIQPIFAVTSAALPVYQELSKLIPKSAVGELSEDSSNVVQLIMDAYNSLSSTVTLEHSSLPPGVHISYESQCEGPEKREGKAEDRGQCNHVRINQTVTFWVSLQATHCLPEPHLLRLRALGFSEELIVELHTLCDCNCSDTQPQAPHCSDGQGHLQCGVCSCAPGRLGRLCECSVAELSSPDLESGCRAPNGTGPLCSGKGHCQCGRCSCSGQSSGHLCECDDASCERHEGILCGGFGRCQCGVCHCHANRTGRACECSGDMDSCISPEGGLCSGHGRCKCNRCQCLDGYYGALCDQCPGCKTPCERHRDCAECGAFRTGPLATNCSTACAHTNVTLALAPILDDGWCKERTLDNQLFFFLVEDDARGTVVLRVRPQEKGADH
Chain of α4β7 (Homo sapiens, UniProt P13612+P26010) (P13612 34-1032): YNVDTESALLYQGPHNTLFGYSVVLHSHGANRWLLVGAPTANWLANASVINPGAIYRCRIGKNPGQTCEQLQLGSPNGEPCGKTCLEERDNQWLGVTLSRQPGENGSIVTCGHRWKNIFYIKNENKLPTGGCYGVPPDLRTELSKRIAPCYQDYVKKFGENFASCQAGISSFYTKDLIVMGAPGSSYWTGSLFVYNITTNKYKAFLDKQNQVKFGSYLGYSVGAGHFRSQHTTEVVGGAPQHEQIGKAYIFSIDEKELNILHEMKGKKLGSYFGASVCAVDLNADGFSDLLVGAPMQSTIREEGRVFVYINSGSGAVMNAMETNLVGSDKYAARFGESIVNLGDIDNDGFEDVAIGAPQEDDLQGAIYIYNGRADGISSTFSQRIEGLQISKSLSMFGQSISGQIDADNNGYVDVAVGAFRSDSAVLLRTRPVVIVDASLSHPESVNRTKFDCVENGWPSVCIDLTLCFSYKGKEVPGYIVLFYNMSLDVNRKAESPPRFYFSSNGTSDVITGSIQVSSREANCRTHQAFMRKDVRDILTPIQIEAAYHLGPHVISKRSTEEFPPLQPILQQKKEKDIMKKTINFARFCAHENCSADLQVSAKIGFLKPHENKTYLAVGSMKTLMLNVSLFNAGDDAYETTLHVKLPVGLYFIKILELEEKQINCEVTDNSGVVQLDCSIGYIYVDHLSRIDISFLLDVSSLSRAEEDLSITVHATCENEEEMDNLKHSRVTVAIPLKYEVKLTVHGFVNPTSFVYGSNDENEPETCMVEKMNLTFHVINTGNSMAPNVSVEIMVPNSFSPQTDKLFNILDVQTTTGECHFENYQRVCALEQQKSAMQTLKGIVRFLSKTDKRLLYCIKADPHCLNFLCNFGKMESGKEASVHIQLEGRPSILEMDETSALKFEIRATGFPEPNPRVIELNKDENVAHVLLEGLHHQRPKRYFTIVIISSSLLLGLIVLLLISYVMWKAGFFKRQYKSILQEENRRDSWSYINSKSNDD
Chain of α4β7 (Homo sapiens, UniProt P13612+P26010) (P26010 20-798): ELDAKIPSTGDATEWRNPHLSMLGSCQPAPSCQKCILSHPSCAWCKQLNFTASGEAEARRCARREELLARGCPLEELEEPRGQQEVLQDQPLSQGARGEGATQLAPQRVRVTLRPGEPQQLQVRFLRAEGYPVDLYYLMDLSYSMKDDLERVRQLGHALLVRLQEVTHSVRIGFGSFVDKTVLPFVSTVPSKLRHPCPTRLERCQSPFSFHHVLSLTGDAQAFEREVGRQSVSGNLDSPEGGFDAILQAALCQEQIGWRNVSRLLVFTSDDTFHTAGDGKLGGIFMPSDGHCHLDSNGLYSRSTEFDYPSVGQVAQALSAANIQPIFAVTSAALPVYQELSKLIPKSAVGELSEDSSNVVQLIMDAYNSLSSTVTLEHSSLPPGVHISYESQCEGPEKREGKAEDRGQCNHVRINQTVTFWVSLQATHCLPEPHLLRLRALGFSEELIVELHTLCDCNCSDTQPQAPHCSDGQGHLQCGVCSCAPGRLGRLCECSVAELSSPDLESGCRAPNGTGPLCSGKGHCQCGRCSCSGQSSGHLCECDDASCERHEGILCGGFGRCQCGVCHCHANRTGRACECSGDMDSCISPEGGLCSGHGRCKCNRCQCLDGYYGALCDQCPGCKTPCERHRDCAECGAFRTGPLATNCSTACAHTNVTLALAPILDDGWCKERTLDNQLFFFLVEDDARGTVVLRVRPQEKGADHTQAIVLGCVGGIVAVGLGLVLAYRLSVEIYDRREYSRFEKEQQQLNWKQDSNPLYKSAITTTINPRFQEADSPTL

With `CC(=O)N[C@@H]1C(=O)N(C)[C@@H](CCCNC(=N)N)C(=O)N[C@@H](CO)C(=O)N[C@@H](CC(=O)O)C(=O)N[C@@H]([C@@H](C)O)C(=O)N[C@@H](CC(C)C)C(=O)N[C@H](C(=O)N[C@@H](Cc2cccc3ccccc23)C(=O)N[C@H](CCC(=O)O)C(=O)N(C)[C@H](CCCCNC(=O)COCC(=O)NCCCC[C@H](C(N)=O)N(C)C(=O)[C@@H](CCC(=O)O)NC(=O)[C@H](Cc2cccc3ccccc23)NC(=O)[C@H]2NC(=O)[C@H](CC(C)C)NC(=O)[C@H]([C@@H](C)O)NC(=O)[C@H](CC(=O)O)NC(=O)[C@H](CO)NC(=O)[C@H](CCCNC(=N)N)N(C)C(=O)[C@@H](NC(C)=O)C(C)(C)SSC2(C)C)C(N)=O)C(C)(C)SSC1(C)C` [compound 38] (I: Ac-[Pen][NMeR]SDTL[Pen][1Nal][dE][dNMeK]-NH2 / II: Ac-[Pen][NMeR]SDTL[Pen][1Nal][dE][dNMeK]-NH2; disulfide I:1-I:7, II:1-II:7; linker I:10-II:10 via Diglycolyl), the results for the 50% inhibitory concentration (IC50) in data set [1], in data set [3] and in data set [4] were below 10 nM, 100 to 500 nM and below 10 nM, respectively. For the same compound, the half-life at 22 μM in data set [2] was above 180 min.
For the compound `CC(=O)N[C@@H]1C(=O)N(C)[C@@H](CCCNC(=N)N)C(=O)N[C@@H](CO)C(=O)N[C@@H](CC(=O)O)C(=O)N[C@@H]([C@@H](C)O)C(=O)N[C@@H](CC(C)C)C(=O)N[C@H](C(=O)N[C@@H](Cc2ccc3ccccc3c2)C(=O)N[C@@H](CCC(=O)O)C(=O)N(C)[C@H](CCCCNC(=O)COCC(=O)NCCCC[C@H](C(N)=O)N(C)C(=O)[C@H](CCC(=O)O)NC(=O)[C@H](Cc2ccc3ccccc3c2)NC(=O)[C@H]2NC(=O)[C@H](CC(C)C)NC(=O)[C@H]([C@@H](C)O)NC(=O)[C@H](CC(=O)O)NC(=O)[C@H](CO)NC(=O)[C@H](CCCNC(=N)N)N(C)C(=O)[C@@H](NC(C)=O)C(C)(C)SSC2(C)C)C(N)=O)C(C)(C)SSC1(C)C` [compound 41] (I: Ac-[Pen][NMeR]SDTL[Pen][2Nal]E[dNMeK]-NH2 / II: Ac-[Pen][NMeR]SDTL[Pen][2Nal]E[dNMeK]-NH2; disulfide I:1-I:7, II:1-II:7; linker I:10-II:10 via Diglycolyl), the IC50 in data set [1] was below 10 nM; in data set [3], 100 to 500 nM; in data set [4], below 10 nM. For the same compound, the half-life at 22 μM in data set [2] was above 180 min.
Take `CC(=O)N[C@@H]1C(=O)N(C)[C@@H](CCCNC(=N)N)C(=O)N[C@@H](CO)C(=O)N[C@@H](CC(=O)O)C(=O)N[C@@H]([C@@H](C)O)C(=O)N[C@@H](CC(C)C)C(=O)N[C@H](C(=O)N[C@@H](Cc2ccc(Cl)cc2Cl)C(=O)N[C@@H](CCC(=O)O)C(=O)N[C@H](CCCCNC(=O)COCC(=O)NCCCC[C@@H](NC(=O)[C@H](CCC(=O)O)NC(=O)[C@H](Cc2ccc(Cl)cc2Cl)NC(=O)[C@H]2NC(=O)[C@H](CC(C)C)NC(=O)[C@H]([C@@H](C)O)NC(=O)[C@H](CC(=O)O)NC(=O)[C@H](CO)NC(=O)[C@H](CCCNC(=N)N)N(C)C(=O)[C@@H](NC(C)=O)C(C)(C)SSC2(C)C)C(N)=O)C(N)=O)C(C)(C)SSC1(C)C` [compound 42] (I: Ac-[Pen][NMeR]SDTL[Pen][Phe(2,4-Cl2)]E[dK]-NH2 / II: Ac-[Pen][NMeR]SDTL[Pen][Phe(2,4-Cl2)]E[dK]-NH2; disulfide I:1-I:7, II:1-II:7; linker I:10-II:10 via Diglycolyl): the IC50 in data set [1] was below 10 nM; in data set [3], 100 to 500 nM; in data set [4] it was below 10 nM. Moreover, the “Stabilty SIF t1/2” value in data set [2] (Table 3-B) is given as 49 min. Further, in data set [2], the half-life at 22 μM is 51 min.
For `CC(=O)N[C@@H]1C(=O)N(C)[C@@H](CCCNC(=N)N)C(=O)N[C@@H](CO)C(=O)N[C@@H](CC(=O)O)C(=O)N[C@@H]([C@@H](C)O)C(=O)N[C@@H](CC(C)C)C(=O)N[C@H](C(=O)N[C@@H](Cc2ccc(Cl)c(Cl)c2)C(=O)N[C@@H](CCC(=O)O)C(=O)N[C@H](CCCCNC(=O)COCC(=O)NCCCC[C@@H](NC(=O)[C@H](CCC(=O)O)NC(=O)[C@H](Cc2ccc(Cl)c(Cl)c2)NC(=O)[C@H]2NC(=O)[C@H](CC(C)C)NC(=O)[C@H]([C@@H](C)O)NC(=O)[C@H](CC(=O)O)NC(=O)[C@H](CO)NC(=O)[C@H](CCCNC(=N)N)N(C)C(=O)[C@@H](NC(C)=O)C(C)(C)SSC2(C)C)C(N)=O)C(N)=O)C(C)(C)SSC1(C)C` [compound 43] (I: Ac-[Pen][NMeR]SDTL[Pen][Phe(3,4-Cl2)]E[dK]-NH2 / II: Ac-[Pen][NMeR]SDTL[Pen][Phe(3,4-Cl2)]E[dK]-NH2; disulfide I:1-I:7, II:1-II:7; linker I:10-II:10 via Diglycolyl), the IC50 in data set [1] was 10 to 25 nM; in data set [3] it was 100 to 500 nM; in data set [4], below 10 nM. In addition, the half-life at 22 μM in data set [2] is 21 min.
Take `COC(=O)CC[C@H](NC(=O)[C@H](Cc1c[nH]c2ccccc12)NC(=O)[C@H]1NC(=O)[C@H](CC(C)C)NC(=O)[C@H]([C@@H](C)O)NC(=O)[C@H](CC(=O)O)NC(=O)[C@H](CO)NC(=O)[C@H](CCCNC(=N)N)N(C)C(=O)[C@@H](NC(C)=O)C(C)(C)SSC1(C)C)C(=O)N[C@H](CCCCNC(=O)COCC(=O)NCCCC[C@@H](NC(=O)[C@H](CCC(=O)OC)NC(=O)[C@H](Cc1c[nH]c2ccccc12)NC(=O)[C@H]1NC(=O)[C@H](CC(C)C)NC(=O)[C@H]([C@@H](C)O)NC(=O)[C@H](CC(=O)O)NC(=O)[C@H](CO)NC(=O)[C@H](CCCNC(=N)N)N(C)C(=O)[C@@H](NC(C)=O)C(C)(C)SSC1(C)C)C(N)=O)C(N)=O` [compound 86] (I: Ac-[Pen][NMeR]SDTL[Pen]WE(OMe)[dK]-NH2 / II: Ac-[Pen][NMeR]SDTL[Pen]WE(OMe)[dK]-NH2; disulfide I:1-I:7, II:1-II:7; linker I:10-II:10 via Diglycolyl): the IC50 in data set [1] and in data set [5] was below 10 nM throughout.
